Here are results for five compounds from BindingDB's records for doi:10.1021/jm970524i (Dupont Pharmaceuticals, 1998).

The term Ki denotes the dissociation constant of the complex between target and ligand, obtained from inhibition or displacement.

Some results are limits rather than exact numbers.

The assay concerns the target T1, Dimer of Gag-Pol polyprotein [489-587] (Human immunodeficiency virus 1, UniProt P04585).
T1 construct: 489-587
In words: Protease Inhibition Assay. The method, then:
Inhibition of HIV protease was measured by assay of the cleavage of a fluorescent peptide substrate. The fluorescent product (2-aminobenzoyl-Ala-Thr-His-Gln-Val-Tyr) was separated from the fluorescent substrate by anion-exchange HPLC on a Mono-Q anion-exchange column (Pharmacia), and fluorescence was monitored at an excitation wavelength of 330 nm and an emission wavelength of 430 nm. Ki values for inhibitor binding were estimated at fixed concentrations of substrate and inhibitor from fractional activity measurements by use of the modified Michaelis-Menten equation.

`O=C1N(Cc2ccc(O)cc2)[C@H](Cc2ccccc2)[C@H](O)[C@@H](O)[C@@H](Cc2ccccc2)N1Cc1ccc(O)cc1`: the Ki is 0.12 nM. As for `O=C1N(Cc2cccc(O)c2)[C@H](Cc2ccccc2)[C@H](O)[C@@H](O)[C@@H](Cc2ccccc2)N1Cc1cccc(O)c1`, the Ki was found to be 0.12 nM. `O=C1N(Cc2cccc(CO)c2)[C@H](Cc2ccccc2)[C@H](O)[C@@H](O)[C@@H](Cc2ccccc2)N1Cc1cccc(CO)c1` [(4R,5S,6S,7R)-4,7-dibenzyl-5,6-dihydroxy-1,3-bis({[3-(hydroxymethyl)phenyl]methyl})-1,3-diazepan-2-one]: the Ki turned out to be 0.14 nM. On to `NC(=O)NC1=N[C@H](Cc2ccccc2)[C@H](O)[C@@H](O)[C@@H](Cc2ccccc2)N1` [[4R-(4a,5a,6B,7B)]-[Hexahydro-5,6-dihydroxy-4,7-bis(phenylmethyl)-2H-1,3-diazepin-2-ylidene]urea], for which, under “pH 5.5, 37 °C”, the Ki is more than 12500 nM.

As to `O=C1N(Cc2cccc([N+](=O)[O-])c2)[C@H](Cc2ccccc2)[C@H](O)[C@@H](O)[C@@H](Cc2ccccc2)N1Cc1cccc([N+](=O)[O-])c1`, the Ki was found to be 2.8 nM.
